Paper PMC7201885 (The Journal of General Physiology, 2020)
Where “and” joins values, the source holds several entries; their conditions need not be identical. Equal entries are not always repeated. Where two headings read alike, the source gives them in different places.

Legend:
hsTRPM2 = details: cited from earlier work
nvTRPM2 = nvTRPM2 (Nematostella vectensis, UniProt A7T1N0); experiment: Inside-out patch-clamp, full-length; format: cell-based; details: for Mode of action on nvTRPM2: compared with ADPR; for Maximal fractional activation: relative to current in 100 µM ADPR
T143A nvTRPM2 = T143A nvTRPM2 (Nematostella vectensis, UniProt A7T1N0, T143A); experiment: Inside-out patch-clamp, T143A nvTRPM2; format: cell-based
T179A nvTRPM2 = T179A nvTRPM2 (Nematostella vectensis, UniProt A7T1N0, T179A); experiment: Inside-out patch-clamp, T179A nvTRPM2; format: cell-based
R329A nvTRPM2 = R329A nvTRPM2 (Nematostella vectensis, UniProt A7T1N0, R329A); experiment: Inside-out patch-clamp, R329A nvTRPM2; format: cell-based
Y264A nvTRPM2 = Y264A nvTRPM2 (Nematostella vectensis, UniProt A7T1N0, Y264A); experiment: Inside-out patch-clamp, Y264A nvTRPM2; format: cell-based
R271A nvTRPM2 = R271A nvTRPM2 (Nematostella vectensis, UniProt A7T1N0, R271A); experiment: Inside-out patch-clamp, R271A nvTRPM2; format: cell-based
T307A nvTRPM2 = T307A nvTRPM2 (Nematostella vectensis, UniProt A7T1N0, T307A); experiment: Inside-out patch-clamp, T307A nvTRPM2; format: cell-based
[1] = full-length nvTRPM2, 125 µM Ca2+
[2] = read-out: EC50 for nvTRPM2 channel activation, full-length nvTRPM2, 125 µM cytosolic Ca2+, Hill fit, −20 mV
[3] = read-out: EC50 for channel activation, 125 µM Ca2+ + 2.5 µM PIP2
[4] = 2.5 and 25 µM PIP2, 125 µM Ca2+ + 3.2 mM ADPR
[5] = 25 µM PIP2, 125 µM Ca2+ + 3.2 mM ADPR
[6] = read-out: EC50 for channel activation by Ca2+ (fractional Po), saturating ADPRP (100 µM) + 2.5 µM PIP2
[7] = saturating ADPRP (100 µM) + 2.5 µM PIP2
[8] = read-out: EC50 for channel activation by Ca2+ (fractional Po), saturating ADPRP (1,000 µM) + 2.5 µM PIP2
[9] = saturating ADPRP (1,000 µM) + 2.5 µM PIP2

T179A nvTRPM2, sequence (A7T1N0 whole entry T179A): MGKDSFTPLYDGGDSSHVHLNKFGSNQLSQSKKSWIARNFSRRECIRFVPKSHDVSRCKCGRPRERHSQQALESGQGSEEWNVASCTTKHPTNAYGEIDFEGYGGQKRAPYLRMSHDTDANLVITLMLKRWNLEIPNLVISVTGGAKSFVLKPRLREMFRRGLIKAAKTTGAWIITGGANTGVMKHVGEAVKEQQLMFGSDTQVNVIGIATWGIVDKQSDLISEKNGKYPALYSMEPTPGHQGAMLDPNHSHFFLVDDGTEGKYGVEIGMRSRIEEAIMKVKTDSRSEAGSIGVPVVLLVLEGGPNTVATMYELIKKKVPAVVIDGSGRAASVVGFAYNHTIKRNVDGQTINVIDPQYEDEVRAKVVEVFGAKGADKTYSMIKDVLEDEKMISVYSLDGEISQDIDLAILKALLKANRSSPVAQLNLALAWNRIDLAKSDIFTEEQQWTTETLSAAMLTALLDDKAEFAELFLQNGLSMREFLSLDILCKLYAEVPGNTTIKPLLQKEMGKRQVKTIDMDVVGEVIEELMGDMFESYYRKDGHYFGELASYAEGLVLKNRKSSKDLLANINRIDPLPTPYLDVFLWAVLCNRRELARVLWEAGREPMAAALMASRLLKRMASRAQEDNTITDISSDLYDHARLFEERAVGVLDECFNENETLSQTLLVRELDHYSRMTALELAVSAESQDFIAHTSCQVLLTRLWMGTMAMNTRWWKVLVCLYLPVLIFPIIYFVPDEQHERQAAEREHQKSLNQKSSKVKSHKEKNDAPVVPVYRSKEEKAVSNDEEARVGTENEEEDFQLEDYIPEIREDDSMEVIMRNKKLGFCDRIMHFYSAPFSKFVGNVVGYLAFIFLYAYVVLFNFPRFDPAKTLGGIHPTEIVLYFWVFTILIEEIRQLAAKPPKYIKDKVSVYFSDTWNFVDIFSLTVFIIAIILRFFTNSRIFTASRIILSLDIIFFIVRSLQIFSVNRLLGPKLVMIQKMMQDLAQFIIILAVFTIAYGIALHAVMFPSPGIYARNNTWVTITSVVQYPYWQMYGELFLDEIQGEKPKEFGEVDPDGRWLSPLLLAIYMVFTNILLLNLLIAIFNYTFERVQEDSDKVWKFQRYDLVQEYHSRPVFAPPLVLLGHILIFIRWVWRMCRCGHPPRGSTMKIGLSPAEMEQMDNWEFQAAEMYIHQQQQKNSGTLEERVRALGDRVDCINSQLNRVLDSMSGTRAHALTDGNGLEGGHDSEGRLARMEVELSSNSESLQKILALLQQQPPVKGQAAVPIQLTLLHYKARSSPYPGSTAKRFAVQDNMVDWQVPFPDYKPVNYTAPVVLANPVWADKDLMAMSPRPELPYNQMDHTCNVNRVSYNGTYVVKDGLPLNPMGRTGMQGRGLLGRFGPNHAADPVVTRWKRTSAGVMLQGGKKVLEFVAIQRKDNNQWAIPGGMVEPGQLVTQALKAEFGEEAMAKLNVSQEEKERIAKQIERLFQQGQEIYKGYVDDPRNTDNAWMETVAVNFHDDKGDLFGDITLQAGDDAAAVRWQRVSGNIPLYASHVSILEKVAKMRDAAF
T143A nvTRPM2, sequence (A7T1N0 whole entry T143A): as the sequence (A7T1N0 whole entry T179A) above, with T143A, A179T counted along it
Y264A nvTRPM2, sequence (A7T1N0 whole entry Y264A): as the sequence (A7T1N0 whole entry T179A) above, with A179T, Y264A counted along it
T307A nvTRPM2, sequence (A7T1N0 whole entry T307A): as the sequence (A7T1N0 whole entry T179A) above, with A179T, T307A counted along it
R329A nvTRPM2, sequence (A7T1N0 whole entry R329A): as the sequence (A7T1N0 whole entry T179A) above, with A179T, R329A counted along it
nvTRPM2, sequence (A7T1N0 whole entry): as the sequence (A7T1N0 whole entry T179A) above, with A179T counted along it
R271A nvTRPM2, sequence (A7T1N0 whole entry R271A): as the sequence (A7T1N0 whole entry T179A) above, with A179T, R271A counted along it

SMILES: Nc1ncnc2c1ncn2[C@H]1C[C@H](O)[C@@H](COP(=O)(O)OP(=O)(O)OC[C@H]2OC(O)[C@H](O)[C@@H]2O)O1 (some centres unmarked) [dADPR, 2′-deoxy-ADPR]
- Mode of action on hsTRPM2 (hsTRPM2; larger maximal whole-cell currents compared with ADPR, ref Fliegert et al., 2017): super-agonist
- Mode of action on nvTRPM2 (nvTRPM2; 125 µM Ca2+): similarly efficacious and potent as ADPR
- Hill coefficient nH for channel activation (nvTRPM2; [1]): 1.3 ± 0.2
- EC50 (nvTRPM2; [2]): ~2700 nM and 2700 nM
- Maximal fractional activation (nvTRPM2; 125 µM Ca2+): 1.1 ± 0.04

SMILES: Nc1ncnc2c1ncn2[C@@H]1O[C@H](COP(=O)(O)OP(=O)(O)OC[C@H]2O[C@@H](O)C(O)[C@H]2O)C(O)[C@@H]1OP(=O)(O)O (some centres unmarked) [ADPRP, ADPR-2′-phosphate]
- Hill coefficient nH for channel activation (T143A nvTRPM2; 125 µM Ca2+ + 2.5 µM PIP2): 1.8 ± 0.1
- EC50 (T143A nvTRPM2; [3]): 1500 ± 100 nM
- Hill coefficient nH for channel activation (T179A nvTRPM2; 125 µM Ca2+ + 2.5 µM PIP2): 1.4 ± 0.2
- EC50 (T179A nvTRPM2; [3]): 3900 ± 500 nM
- Hill coefficient nH for channel activation (R329A nvTRPM2; 125 µM Ca2+ + 2.5 µM PIP2): 2.1 ± 0.2
- EC50 (hsTRPM2; read-out: EC50 for hsTRPM2, activation, inside-out patches, saturating cytosolic Ca2+, ref Tóth et al., 2015): 13000 ± 1000 nM
- Mode of action on hsTRPM2 (hsTRPM2; ref Tóth et al., 2015): low-affinity partial agonist
- Hill coefficient nH for channel activation (Y264A nvTRPM2; 125 µM Ca2+ + 2.5 µM PIP2): 1.8 ± 0.3
- Hill coefficient nH for channel activation (R271A nvTRPM2; 125 µM Ca2+ + 2.5 µM PIP2): 1.7 ± 0.2
- EC50 (R271A nvTRPM2; [3]): 89 ± 5 nM
- Hill coefficient nH for channel activation (T307A nvTRPM2; 125 µM Ca2+ + 2.5 µM PIP2): 1.6 ± 0.2
- EC50 (T307A nvTRPM2; [3]): 12000 ± 1000 nM
- Mode of action on nvTRPM2 (nvTRPM2; 125 µM Ca2+): full agonist
- Potency for activating WT nvTRPM2 relative to ADPR (nvTRPM2; EC50 ratio versus ADPR): approximately fivefold
- Hill coefficient nH for channel activation (nvTRPM2; WT nvTRPM2, 125 µM Ca2+ + 2.5 µM PIP2): 1.8 ± 0.2
- Hill coefficient nH for channel activation (nvTRPM2; [1]): 2.1 ± 0.4
- EC50 (nvTRPM2; read-out: EC50 for channel activation, WT nvTRPM2, 125 µM Ca2+ + 2.5 µM PIP2): 310 ± 20 nM
- EC50 (nvTRPM2; [2]): ~400 nM
- Maximal fractional activation (nvTRPM2; 125 µM Ca2+): 1.06 ± 0.03

SMILES: O=P(O)(OC[C@H]1OC(O)[C@H](O)[C@@H]1O)OP(=O)(O)OC[C@H]1O[C@@H](n2cnc3c2ncn2ccnc32)[C@H](O)[C@@H]1O (some centres unmarked) [ε-ADPR, 1,N^6-ethenoadenosine-5′-O-diphosphoribose]
- Mode of action on hsTRPM2 (hsTRPM2; ref Iordanov et al., 2016): low-affinity antagonist
- Mode of action on nvTRPM2 (nvTRPM2; 125 µM Ca2+): low-affinity antagonist
- Current induced by the analogue alone (nvTRPM2; 200 µM, 125 µM cytosolic Ca2+): only tiny currents
- Reduction of currents elicited by 3.2 µM ADPR (nvTRPM2; coapplication of 200 µM ε-ADPR, 125 µM Ca2+): ~25%

SMILES: CCCCCCCC(=O)OC[C@H](COP(=O)(O)O[C@@H]1[C@H](O)[C@H](O)[C@@H](OP(=O)(O)O)[C@H](OP(=O)(O)O)[C@H]1O)OC(=O)CCCCCCC [PIP2, phosphatydyl-inositol-4-5-bisphosphate]
- Stimulation of macroscopic current by exogenous PIP2 (T143A nvTRPM2; [4]): small fractional stimulation
- Stimulation of macroscopic current by exogenous PIP2 (T179A nvTRPM2; [5]): ~80 fold
- Stimulation of macroscopic current by exogenous PIP2 (Y264A nvTRPM2; [5]): ~40 fold
- Stimulation of macroscopic current by exogenous PIP2 (R271A nvTRPM2; [5]): approximately twofold
- Stimulation of macroscopic current by exogenous PIP2 (T307A nvTRPM2; [4]): small fractional stimulation
- Stimulation of macroscopic current by exogenous PIP2 (nvTRPM2; WT, 125 µM Ca2+ + 3.2 mM ADPR): only marginal additional stimulation

SMILES: [Ca+2] [Ca^2+]
- EC50 (T143A nvTRPM2; [6]): 640 ± 20 nM
- Hill coefficient nH for activation by Ca2+ (T143A nvTRPM2; [7]): 2.3 ± 0.2
- EC50 (T179A nvTRPM2; [6]): 1800 ± 100 nM
- Hill coefficient nH for activation by Ca2+ (T179A nvTRPM2; [7]): 2.3 ± 0.1
- EC50 (R329A nvTRPM2; [8]): 1100 ± 40 nM
- Hill coefficient nH for activation by Ca2+ (R329A nvTRPM2; [9]): 2.0 ± 0.2
- EC50 (Y264A nvTRPM2; [8]): 2000 ± 100 nM
- Hill coefficient nH for activation by Ca2+ (Y264A nvTRPM2; [9]): 1.8 ± 0.1
- EC50 (R271A nvTRPM2; read-out: EC50 for channel activation by Ca2+ (fractional Po), saturating ADPRP (10 µM) + 2.5 µM PIP2): 1680 ± 40 nM
- Hill coefficient nH for activation by Ca2+ (R271A nvTRPM2; saturating ADPRP (10 µM) + 2.5 µM PIP2): 3.0 ± 0.2
- EC50 (T307A nvTRPM2; [8]): 930 ± 50 nM
- Hill coefficient nH for activation by Ca2+ (T307A nvTRPM2; [9]): 1.9 ± 0.2
- Hill coefficient nH for activation by Ca2+ (nvTRPM2; WT, saturating ADPRP (10 µM) + 2.5 µM PIP2): 1.7 ± 0.2
